Laboratory results taken from PMC11320178 (Chemical Science, 2024).
Where no end group is shown, it is not given here.

How the values were obtained:
[1] = format: physicochemical; conditions: equimolar semicarbazide derivative (∼100 μM) in PBS pH 7.4, 20 min, LC-MS
[2] = pH 2
[3] = Stability of the cyclic peptide against ROS environment; format: physicochemical; conditions: P1 ∼100 μM, ∼150 μM H2O2 in PBS pH 7.4, after 6 h, LC-MS

CIITRPC (also: sidechain bridge or staple (positions not given here)) [P1]
Linearization by semicarbazide (diazaborine conjugate formation) [1]: linearized
Stability under a wide range of pH values (no complete dissociation of the thiazolidine ring) [2]: high stability
Stability in H2O2 [3]: remarkable stability
